Test results: patent publication US9422264B2, “Carbamate-substituted oxindole derivatives and use thereof for the treatment of vasopressin-dependent diseases” (AbbVie Deutschland GmbH & Co. KG, priority 2007, dated 2016)
Structures can show the parent of a compound that is named as a salt.

Columns and labels:
[1] = molecular target: T1, recombinant human oxytocin receptors (Homo sapiens, UniProt P30559); experiment: Oxytocin receptor binding assay; conditions: selectivity quotient, human OT versus human V1b
T1 construct: expressed in transfected cells; host or cells: HEK-293 (transient)
T1 sequence (P30559 1-389): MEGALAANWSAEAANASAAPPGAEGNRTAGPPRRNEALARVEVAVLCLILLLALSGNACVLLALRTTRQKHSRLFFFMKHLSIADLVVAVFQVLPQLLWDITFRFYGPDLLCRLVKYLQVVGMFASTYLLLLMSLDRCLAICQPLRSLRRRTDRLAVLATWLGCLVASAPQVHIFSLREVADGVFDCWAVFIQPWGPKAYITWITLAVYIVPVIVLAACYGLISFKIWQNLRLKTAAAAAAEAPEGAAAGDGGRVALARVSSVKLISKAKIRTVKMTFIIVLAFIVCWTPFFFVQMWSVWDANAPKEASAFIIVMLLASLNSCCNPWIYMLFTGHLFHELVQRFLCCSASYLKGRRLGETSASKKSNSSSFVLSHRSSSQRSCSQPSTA
Protocol: 4. Oxytocin Receptor Binding Assay
Confluent HEK-293 cells with transiently expressing recombinant human oxytocin receptors were centrifuged at 750×g at room temperature for 5 minutes. The residue was taken up in ice-cold lysis buffer (50 mM Tris-HCl, 10% glycerol, pH 7.4 and Roche complete protease inhibitor) and subjected to an osmotic shock at 4° C. for 20 minutes. The lyzed cells were then centrifuged at 750×g at 4° C. for 20 minutes, the residue was taken up in incubation buffer, and aliquots of 10^7 cells/ml were prepared. The aliquots were frozen at −80° C. until used.
On the day of the experiment, the cells were thawed, diluted with incubation buffer and homogenized using a Multipette Combitip (Eppendorf, Hamburg). […] The nonspecific binding was determined with 10^−6 M oxytocin (Bachem AG, H2510). Triplicate determinations were set up. Bound and free radioligand were separated by filtration under vacuum with Whatman GF/B glass fiber filters with the aid of a Skatron cell harvester 7000. The bound radioactivity was determined by liquid scintillation measurement in a Tricarb Beta counter, model 2000 or 2200CA (Packard).

[2] = molecular target: T2, human vasopressin V1b receptor (Homo sapiens, UniProt P47901); experiment: Vasopressin V1b receptor binding assay; conditions: read-out: Ki(h-V1b)*
T2 construct: expressed in transfected cells; host or cells: CHO-K1 (cell line hV1b_3H2_CHO)
T2 sequence (P47901 1-424): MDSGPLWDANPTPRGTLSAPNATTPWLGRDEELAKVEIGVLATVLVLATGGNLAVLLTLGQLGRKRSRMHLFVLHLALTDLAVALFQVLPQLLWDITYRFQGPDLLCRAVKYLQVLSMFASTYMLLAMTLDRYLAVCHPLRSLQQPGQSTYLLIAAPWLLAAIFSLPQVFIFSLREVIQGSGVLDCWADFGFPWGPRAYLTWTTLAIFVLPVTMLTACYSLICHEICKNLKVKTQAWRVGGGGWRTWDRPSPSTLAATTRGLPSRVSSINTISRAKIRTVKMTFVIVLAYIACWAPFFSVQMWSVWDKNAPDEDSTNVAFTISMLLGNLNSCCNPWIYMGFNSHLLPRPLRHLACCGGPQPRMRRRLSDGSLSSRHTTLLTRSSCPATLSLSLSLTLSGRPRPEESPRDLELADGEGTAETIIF
Protocol: 1. Vasopressin V1b Receptor Binding Assay:
The substance concentration was further diluted 1:5 in the assay mixture (2% DMSO in the mixture).
All determinations were carried out as triplicate determinations.

[3] = molecular target: human vasopressin V1a receptor (Homo sapiens, UniProt P37288); experiment: Vasopressin V1a receptor binding assay; conditions: selectivity quotient, human V1a versus human V1b
[4] = Determination of the microsomal half-life / microsomal clearance (human liver microsomes); format: in vitro ADME; conditions: pH 7.4, 0.5 μM test substance
Protocol: 5. Determination of the Microsomal Half-Life:
The metabolic stability of the compounds of the invention was determined in the following assay.
The test substances were incubated in a concentration of 0.5 μM as follows:
0.5 μM test substance are preincubated together with liver microsomes from different species (from rat, human or other species) (0.25 mg of microsomal protein/ml) in 0.05 M potassium phosphate buffer of pH 7.4 in microtiter plates at 37° C. for 5 min. The reaction is started by adding NADPH (1 mg/mL). After 0, 5, 10, 15, 20 and 30 min, 50 μl aliquots are removed, and the reaction is immediately stopped and cooled with the same volume of acetonitrile. The samples are frozen until analyzed. The remaining concentration of undegraded test substance is determined by MSMS. The half-life (T½) is determined from the gradient of the signal of test substance/unit time plot, it being possible to calculate the half-life of the test substance, assuming first order kinetics, from the decrease in the concentration of the compound with time. The microsomal clearance (mCl) is calculated from mCl=In2/T½/(content of microsomal protein in mg/ml)×1000 […] (modified from references: Di, The Society for Biomoleculur Screening, 2003, 453-462; Obach, DMD, 1999 vol. 27. N 11, 1350-1359).

Sequence of human vasopressin V1a receptor (P37288 whole entry): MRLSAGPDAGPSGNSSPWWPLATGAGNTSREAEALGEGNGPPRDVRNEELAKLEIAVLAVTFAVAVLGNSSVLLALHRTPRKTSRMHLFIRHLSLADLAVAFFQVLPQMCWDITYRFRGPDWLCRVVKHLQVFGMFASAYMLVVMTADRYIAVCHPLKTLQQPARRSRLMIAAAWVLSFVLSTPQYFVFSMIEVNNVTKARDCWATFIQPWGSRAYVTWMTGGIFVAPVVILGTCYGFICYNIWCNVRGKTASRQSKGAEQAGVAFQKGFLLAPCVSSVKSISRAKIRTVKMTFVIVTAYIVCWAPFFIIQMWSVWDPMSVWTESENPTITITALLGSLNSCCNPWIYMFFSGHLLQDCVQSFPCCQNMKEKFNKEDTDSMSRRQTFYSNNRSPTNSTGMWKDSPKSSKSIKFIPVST

| Structure (SMILES) | Ki(h-OT)/Ki(h-V1b)* [1] | Ki [2] | Ki(h-V1a)/Ki(h-V1b)* [3] | microsomal CLint at 0.5 μM [4] |
| --- | --- | --- | --- | --- |
| CCOc1ncccc1C1(OC(=O)N2CCC(N3CCN(C)CC3)CC2)C(=O)N(S(=O)(=O)c2ccccc2OC)c2ccc(C#N)cc21 (racemic) [Example 32, (±)-5-Cyano-3-(2-ethoxypyridin-3-yl)-1-[(2-methoxyphenyl)sulfonyl]-2-oxo-2,3-dihydro-1H-indol-3-yl 4-(4-methylpiperazin-1-yl)piperidine-1-carboxylate] | +++ (>45) | 10 to 50 nM | ++ (>25-75) | 75 to 200 µL/min/mg |
| CCOc1ncccc1C1(OC(=O)N2CCC(N3CCN(CC)CC3)CC2)C(=O)N(S(=O)(=O)c2ccc(OC)cc2OC)c2ccc(C#N)cc21 (racemic) [Example 37, (±)-5-Cyano-1-[(2,4-dimethoxyphenyl)sulfonyl]-3-(2-ethoxypyridin-3-yl)-2-oxo-2,3-dihydro-1 H-indol-3-yl-4-(4-ethylpiperazin-1-yl)piperidine-1-carboxylate] | +++ (>45) | < 10 nM | +++ (>75) | 75 to 200 µL/min/mg |
| CCOc1ncccc1C1(OC(=O)N2CCC(N3CCN(CC)CC3)CC2)C(=O)N(S(=O)(=O)c2ccccc2)c2ccc(C#N)cc21 (racemic) [Example 40, (±)-5-Cyano-3-(2-ethoxypyridin-3-yl)-2-oxo-1-(phenylsulfonyl)-2,3-dihydro-1H-indol-3-yl 4-(4-ethylpiperazin-1-yl)piperidine-1-carboxylate] | +++ (>45) | < 10 nM | ++ (>25-75) | 50 to 75 µL/min/mg |
| CCOc1ncccc1C1(OC(=O)N2CCN(C3CCN(C)CC3)CC2)C(=O)N(S(=O)(=O)c2ccc(OC)cc2OC)c2ccc(C#N)cc21 (racemic) [Example 1, (±)-5-Cyano-1-[(2,4-dimethoxyphenyl)sulfonyl]-3-(2-ethoxypyridin-3-yl)-2-oxo-2,3-dihydro-1H-indol-3-yl-4-(1-methylpiperidin-4-yl)piperazine-1-carboxylate] | +++ (>45) | < 10 nM | +++ (>75) | 75 to 200 µL/min/mg |
| CCOc1ncccc1C1(OC(=O)N2CCN(C3CCN(CC)CC3)CC2)C(=O)N(S(=O)(=O)c2ccccc2)c2ccc(C#N)cc21.O=C(O)C(F)(F)F (racemic) [Example 10, (±)-5-Cyano-3-(2-ethoxypyridin-3-yl)-2-oxo-1-(phenylsulfonyl)-2,3-dihydro-1H-indol-3-yl 4-(1-ethylpiperidin-4-yl)piperazine-1-carboxylate, trifluoroacetic acid salt] | +++ (>45) | < 10 nM | +++ (>75) | < 50 µL/min/mg |
| CCOc1ncccc1C1(OC(=O)N2CCN(C3CCN(C)CC3)CC2)C(=O)N(S(=O)(=O)c2ccccc2)c2ccc(C#N)cc21 (racemic) [Example 4, (±)-5-Cyano-3-(2-ethoxypyridin-3-yl)-2-oxo-1-(phenylsulfonyl)-2,3-dihydro-1H-indol-3-yl 4-(1-methylpiperidin-4-yl)piperazine-1-carboxylate] | +++ (>45) | < 10 nM | +++ (>75) | < 50 µL/min/mg |
| CCOc1ncccc1C1(OC(=O)N2CCC(N3CCNCC3)CC2)C(=O)N(S(=O)(=O)c2ccc(OC)cc2OC)c2ccc(C#N)cc21 (stereo not drawn) [Example 55, 5-Cyano-1-[(2,4-dimethoxyphenyl)sulfonyl]-3-(2-ethoxypyridin-3-yl)-2-oxo-2,3-dihydro-1H-indol-3-yl-4-piperazin-1-ylpiperidine-1-carboxylate as bis(trifluoroacetic acid) salt] | + (15-25) | < 10 nM | ++ (>25-75) | 75 to 200 µL/min/mg |

The remaining lines, values ahead:

| Ki(h-OT)/Ki(h-V1b)* [1] | Ki [2] | Ki(h-V1a)/Ki(h-V1b)* [3] | microsomal CLint at 0.5 μM [4] | Structure (SMILES) |
| --- | --- | --- | --- | --- |
| ++ (>25-45) | < 10 nM | ++ (>25-75) | 75 to 200 µL/min/mg | CCOc1ncccc1C1(OC(=O)N2CCC(N3CCN(C)CC3)CC2)C(=O)N(S(=O)(=O)c2ccc(OC)cc2)c2ccc(C#N)cc21 (racemic) [Example 35, (±)-5-Cyano-3-(2-ethoxypyridin-3-yl)-1-[(4-methoxyphenyl)sulfonyl]-2-oxo-2,3-dihydro-1H-indol-3-yl 4-(4-methylpiperazin-1-yl)piperidine-1-carboxylate] |
| +++ (>45) | < 10 nM | +++ (>75) | 75 to 200 µL/min/mg | CCOc1ncccc1C1(OC(=O)N2CCN(C3CCN(C)CC3)CC2)C(=O)N(S(=O)(=O)c2ccccc2OC)c2ccc(C#N)cc21 (single isomer, unassigned; (-)) [Example 2B, (−)-5-Cyano-3-(2-ethoxypyridin-3-yl)-1-[(2-methoxyphenyl)sulfonyl]-2-oxo-2,3-dihydro-1H-indol-3-yl-4-(1-methylpiperidin-4-yl)piperazine-1-carboxylate] |
| ++ (>25-45) | < 10 nM | +++ (>75) | 75 to 200 µL/min/mg | CCOc1ncccc1C1(OC(=O)N2CCN(C3CCN(C)CC3)CC2)C(=O)N(S(=O)(=O)c2ccc(OC)cc2)c2ccc(C#N)cc21 (racemic) [Example 5, (±)-5-Cyano-3-(2-ethoxypyridin-3-yl)-1-[(4-methoxyphenyl)sulfonyl]-2-oxo-2,3-dihydro-1H-indol-3-yl-4-(1-methylpiperidin-4-yl)piperazine-1-carboxylate] |
| + (15-25) | < 10 nM | +++ (>75) | 50 to 75 µL/min/mg | CCOc1ncccc1C1(OC(=O)N2CCN(C3CCNCC3)CC2)C(=O)N(S(=O)(=O)c2ccc(OC)cc2OC)c2ccc(C#N)cc21 (racemic) [Example 25, (±)-5-Cyano-1-[(2,4-dimethoxyphenyl)sulfonyl]-3-(2-ethoxypyridin-3-yl)-2-oxo-2,3-dihydro-1H-indol-3-yl-4-piperidin-4-ylpiperazine-1-carboxylate as bis(trifluoroacetic acid) salt] |
| +++ (>45) | < 10 nM | +++ (>75) | < 50 µL/min/mg | CCOc1ncccc1C1(OC(=O)N2CCN(C3CCN(C)CC3)CC2)C(=O)N(S(=O)(=O)c2ccccc2)c2ccc(C#N)cc21 (single isomer, unassigned; (-)) [Example 4B, (−)-5-Cyano-3-(2-ethoxypyridin-3-yl)-2-oxo-1-(phenylsulfonyl)-2,3-dihydro-1H-indol-3-yl 4-(1-methylpiperidin-4-yl)piperazine-1-carboxylate] |
